Laboratory results published in ChEMBL document CHEMBL1142403, “Synthesis and anti-cancer activity of benzothiazole containing phthalimide on human carcinoma cell lines” (Bioorg Med Chem, 2008).
Activity calls are given as the source filed them. The calls are words filed in the database; no cut-off is given here.

Key:
SK-HEP1 = assay: Cytotoxicity against human SK-Hep1 cells assessed as reduction in cellular ATP level after 48 hrs; format: functional, cell-based; details: SK-HEP1, 48 h, pooled result: one value given for 3 cell lines, strains, targets or settings
Caspase-3 (Homo sapiens) [1] = biological target: T1, Caspase-3 (Homo sapiens) (UniProt P42574); assay: Activation of human caspase 3 in human SK-Hep1 cells at 110 uM after 48 hrs by PerkinElmer Trupoint assay; format: cell-based
T1 sequence (whole entry): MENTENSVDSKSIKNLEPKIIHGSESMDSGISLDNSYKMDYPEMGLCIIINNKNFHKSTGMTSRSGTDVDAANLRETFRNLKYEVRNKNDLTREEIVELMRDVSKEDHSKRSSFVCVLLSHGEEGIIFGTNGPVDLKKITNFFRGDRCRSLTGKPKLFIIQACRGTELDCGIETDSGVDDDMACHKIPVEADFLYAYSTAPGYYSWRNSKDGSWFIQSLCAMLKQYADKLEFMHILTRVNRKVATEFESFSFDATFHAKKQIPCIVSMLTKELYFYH

Caspase-3 (Homo sapiens) [2] = biological target: T1, Caspase-3 (Homo sapiens); assay: Activation of human caspase 3 in human CA46 cells at 110 uM after 48 hrs by PerkinElmer Trupoint assay; format: cell-based

Row | Activity (Caspase-3 (Homo sapiens) [1]) | Activity (Caspase-3 (Homo sapiens) [2]) | Structure (SMILES) | IC50 (SK-HEP1)
1 | – | – | C[C@@]12C(=O)N(c3nc4ccc(OC(F)(F)F)cc4s3)C(=O)[C@]1(C)[C@H]1CC[C@@H]2O1 [CANTHARIDIMIDE] | 15.2 µM
2 | Active | Active | O=C1c2ccccc2C(=O)N1c1nc2ccc(OC(F)(F)F)cc2s1 [PHATHALIMIDE] | 69 µM
